Assay results reported in PubChem BioAssay (NCI).
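48-hour exposure; five concentrations; linearly interpolated endpoints. GI50: concentration for 50% inhibition of growth. TGI is the concentration that stops growth completely.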

Experiments:
Test in all cases: NCI anticancer screen, dose series, 48 h
OVCAR-3 ovarian = tested on: OVCAR-3 ovarian
EKVX NSCLC = tested on: EKVX NSCLC
UACC-62 melanoma = tested on: UACC-62 melanoma
U251 CNS = tested on: U251 CNS
786-0 renal = tested on: 786-0 renal
CAKI-1 renal = tested on: CAKI-1 renal
SN12C renal = tested on: SN12C renal
MCF7 breast = tested on: MCF7 breast
TK-10 renal = tested on: TK-10 renal
RXF 393 renal = tested on: RXF 393 renal

Compound: COC1C(OC(=O)c2ccc(C)[nH]2)C(O)C(Oc2ccc3c(O)c(NC(=O)c4ccc(O)c(CC=C(C)C)c4)c(=O)oc3c2Cl)OC1(C)C (centres undefined)
- TGI (OVCAR-3 ovarian): 43.6 µM
- TGI (EKVX NSCLC): 61.9 µM
- TGI (UACC-62 melanoma): 32.9 µM
- TGI (U251 CNS): 26.8 µM
- TGI (786-0 renal): 31.9 µM
- TGI (CAKI-1 renal): 36.2 µM
- TGI (SN12C renal): 53.2 µM
- TGI (MCF7 breast): 54.2 µM
- TGI (TK-10 renal): > 100 µM

Compound: CN1CCCCC1CCN1c2ccccc2Sc2ccc(Br)cc21 (centres undefined)
- GI50 (OVCAR-3 ovarian): 3.36 µM
- TGI (OVCAR-3 ovarian): 11.7 µM
- GI50 (UACC-62 melanoma): 1.83 µM
- TGI (UACC-62 melanoma): 4.1 µM
- GI50 (U251 CNS): 2.13 µM
- TGI (U251 CNS): 4.66 µM
- GI50 (RXF 393 renal): 2.18 µM
- TGI (RXF 393 renal): 6.46 µM
- GI50 (786-0 renal): 2.14 µM
- TGI (786-0 renal): 4.79 µM
- GI50 (CAKI-1 renal): 2.97 µM
- TGI (CAKI-1 renal): 10.9 µM
- GI50 (SN12C renal): 3.23 µM
- TGI (SN12C renal): 11.9 µM
- GI50 (MCF7 breast): 2.06 µM
- TGI (MCF7 breast): 4.27 µM
- GI50 (TK-10 renal): 1.99 µM
- TGI (TK-10 renal): 5.14 µM

Compound: CC1(C)N=C(N)N=C(N)N1c1ccc(CCCC(=O)Nc2ccc(S(=O)(=O)F)cc2)cc1
- GI50 (OVCAR-3 ovarian): 33.6 µM
- TGI (OVCAR-3 ovarian): > 100 µM
- GI50 (UACC-62 melanoma): 2.24 µM
- TGI (UACC-62 melanoma): > 100 µM
- GI50 (U251 CNS): 9.22 µM
- TGI (U251 CNS): > 100 µM
- GI50 (RXF 393 renal): 4.22 µM
- TGI (RXF 393 renal): > 100 µM
- GI50 (786-0 renal): 4.97 µM
- TGI (786-0 renal): > 100 µM
- GI50 (CAKI-1 renal): 35 µM
- TGI (CAKI-1 renal): > 100 µM
- GI50 (SN12C renal): 6.15 µM
- TGI (SN12C renal): > 100 µM
- GI50 (MCF7 breast): 5.23 µM
- TGI (MCF7 breast): > 100 µM
- GI50 (TK-10 renal): 7.63 µM
- TGI (TK-10 renal): > 100 µM

Compound: CC(C)(O)C1COC2=C1C(=O)c1ccccc1C2=O (centres undefined)
- TGI (OVCAR-3 ovarian): 57.8 µM
- TGI (EKVX NSCLC): > 100 µM
- TGI (UACC-62 melanoma): 42.9 µM
- TGI (U251 CNS): > 100 µM
- TGI (786-0 renal): > 100 µM
- TGI (CAKI-1 renal): > 100 µM
- TGI (SN12C renal): 77.8 µM
- TGI (MCF7 breast): 40.1 µM

Compound: COc1cccc(C2CC(=O)Nc3c2c(C)nn3-c2nc3ccccc3[nH]2)c1OC (centres undefined)
- GI50 (OVCAR-3 ovarian): 4.55 µM
- TGI (OVCAR-3 ovarian): 19.8 µM
- GI50 (UACC-62 melanoma): 2.52 µM
- TGI (UACC-62 melanoma): 7.86 µM
- GI50 (U251 CNS): 3.63 µM
- TGI (U251 CNS): 20.3 µM
- GI50 (RXF 393 renal): 2.91 µM
- TGI (RXF 393 renal): 10.6 µM
- GI50 (786-0 renal): 5.51 µM
- TGI (786-0 renal): 65 µM
- GI50 (CAKI-1 renal): 3 µM
- TGI (CAKI-1 renal): 19.7 µM
- GI50 (SN12C renal): 4.29 µM
- TGI (SN12C renal): 48.3 µM
- GI50 (MCF7 breast): 3.36 µM
- TGI (MCF7 breast): > 100 µM
- GI50 (TK-10 renal): 6.8 µM
- TGI (TK-10 renal): > 100 µM

Compound: O=C(N/C(=C\c1ccc([N+](=O)[O-])cc1)c1nc2ccccc2s1)c1ccccc1
- TGI (OVCAR-3 ovarian): > 100 µM
- TGI (UACC-62 melanoma): 48.3 µM
- TGI (U251 CNS): > 100 µM
- TGI (RXF 393 renal): 78.4 µM
- TGI (786-0 renal): 34.1 µM
- TGI (CAKI-1 renal): 95.8 µM
- TGI (SN12C renal): 44.9 µM
- TGI (TK-10 renal): 61.9 µM

Compound: CCc1ccc2c(c1)C(=O)c1c-2n(CCCN)c(=O)c2cc(OC)c(OC)cc12
- GI50 (OVCAR-3 ovarian): 1.51 µM
- TGI (OVCAR-3 ovarian): 2.89 µM
- GI50 (EKVX NSCLC): 1.92 µM
- TGI (EKVX NSCLC): 3.44 µM
- GI50 (UACC-62 melanoma): 1.8 µM
- TGI (UACC-62 melanoma): 3.32 µM
- GI50 (U251 CNS): 1.69 µM
- TGI (U251 CNS): 3.11 µM
- GI50 (786-0 renal): 1.68 µM
- TGI (786-0 renal): 3.11 µM
- GI50 (SN12C renal): 1.73 µM
- TGI (SN12C renal): 3.33 µM
- GI50 (MCF7 breast): 1.58 µM
- TGI (MCF7 breast): 3.43 µM
- GI50 (TK-10 renal): 1.74 µM
- TGI (TK-10 renal): 3.28 µM

Compound: O=P(CN1CCOCC1)(c1ccccc1)c1ccccc1
- TGI (OVCAR-3 ovarian): > 100 µM
- TGI (EKVX NSCLC): > 100 µM
- TGI (UACC-62 melanoma): > 100 µM
- TGI (U251 CNS): > 100 µM
- TGI (RXF 393 renal): > 100 µM
- TGI (786-0 renal): > 100 µM
- TGI (CAKI-1 renal): > 100 µM
- TGI (SN12C renal): > 100 µM
- TGI (TK-10 renal): > 100 µM
